Experimental data from paper PMC11921695 (BMC Cancer, 2025).

System: HIV-associated Kaposi sarcoma
Assay: Progression-free survival (Kaplan-Meier)
Assay type: in vivo, human
[1] = any dose/safety population, 16 patients
[2] = per protocol population, 12 patients

With `Cn1cnc2c(F)c(Nc3ccc(Br)cc3Cl)c(C(=O)NOCCO)cc21` [selumetinib, 6-(4-Bromo-2-chloro-phenylamino)-7-fluro-3-methyl-3 H-benzoimidazole-5-carboxylic acid (2-hydroxy-ethoxy)-amide hydrogen sulphate] as the compound, how does the “3-month PFS (90% CI)” value (MTD population, 15 patients) read?
Its value is 66%(42%,82%).

What about the “6-month PFS (90% CI)” value (MTD population, 15 patients) of the same compound?
The value was 44% (22%, 64%).

And the “Median PFS in months (90% CI)” value (MTD population, 15 patients)?
Its value is 5.53 (2.53, 12.80) months.

And the “3-month PFS (90% CI)” value [1]?
The value was 62%(39%,78%).

And the “6-month PFS (90% CI)” value [1]?
Its value is 41% (21%, 61%).

And the “Median PFS in months (90% CI)” value [1]?
Its value is 4.14 (2.53, 12.80) months.

What about the “3-month PFS (90% CI)” value [2] of the same compound?
The value was 57%(31%,76%).

And the “Median PFS in months (90% CI)” value [2]?
Its value is 3.42 (1.74, -^$) months.
